Tests used:
Type in all cases: cell-based, human
Aβ1–40 peptide secretion = experiment: Aβ1–40 secretion in cell medium by ELISA; conditions: Homo sapiens; SY5Y-APP^WT cells, 24 h treatment; mean ± SD of at least three experiments in triplicate; read-out: Aβ1–40 IC50
Description: (§1) The final and selected intermediate compounds were evaluated for their ability to modulate APP processing in the SH-SY5Y human neuroblastoma cell line stably expressing the neuronal isoform of human wild-type APP^695 (SY5Y-APP^WT), a well-established model for the study of APP metabolism. APP carboxy-terminal fragments (αCTFs and AICD) levels were assessed by Western blotting (WB). The effect of the reference and test compounds on αCTFs and AICD is expressed as the intensity of corresponding WB bands. The concentration of compounds able to increase 20-times αCTFs and AICD (C20) when compared to the control condition was calculated. Selected compounds were also evaluated for their ability to modulate the secretion of soluble APP fragments (sAPPα and sAPPβ). Aβ1–x levels (Aβ1–40 and Aβ1–42) after treatment with the reference and tested compounds were measured in the cell media by ELISA (Table 1). […] Selected hit compounds were then further evaluated for their ability to decrease the level of N-truncated Aβ peptides (Aβx–38, Aβx–40, and Aβx–42).
(§2) The human neuroblastoma cell line SY5Y-APP^695WT was maintained in Dulbecco’s modified Eagle medium (DMEM, high glucose, pyruvate—GIBCO, Life Technologies, Carlsbad, CA, USA) supplemented with 10% fetal bovine serum, 2 mM L-glutamine, 1 mM non-essential amino acids and penicillin/streptomycin (GIBCO, Life Technologies, Carlsbad, CA, USA) at 37 °C in a 5% CO2 humidified incubator [36]. For compound treatment, a 10 mM stock solution was diluted in freshly supplemented DMEM medium to obtain the precise final concentration of the drug. Cells were plated at a density of 5 × 10^5 cells per well into 12-well plates and cultured with 1 mL supplemented DMEM cell medium for 24 h before compound exposure. The following day, the cell medium was replaced with fresh medium containing the compounds diluted at the indicated concentrations. Cells were treated for 24 h. At the end of the treatments, the cell medium was collected and kept at −80 °C until use, cells were rinsed once with PBS and extracted in 100 µL of Laemmli buffer (10 mM Tris, 20% glycerol, and 2% sodium dodecyl sulfate) using a cell-scraper. The cell lysate was further sonicated (30 pulses of 0.5 s, 60 Hz) for 5 min. Total protein concentration was determined using the Pierce BCA Protein Assay Kit (Thermo Scientific, Waltham, MA, USA) according to the manufacturer’s instructions. Samples were stored at −80 °C until analysis.
(§3) Conditioned media of SY5Y-APP^695WT collected at the end of treatments were centrifuged at 1000× g for 5 min to eliminate cell debris.
(§4) Aβ1–40/Aβ1–42 peptides, Aβx–38/Aβx–40/Aβx–42, and sAPPα/sAPPβ concentrations in pg/mL were determined, respectively, using amyloid-beta 40 and 42 Human ELISA Kits (Invitrogen), the V-PLEX Plus Aβ Peptide Panel 1 (4G8) Kit (Meso Scale Diagnostics, MSD R©, Rockville, MD, USA), and the sAPPα/sAPPβ Multiplex Kit (Meso Scale Diagnostics, MSD R©, Rockville, MD, USA) according to the manufacturer’s instructions.

Aβ1–42 peptide secretion = experiment: Aβ1–42 secretion in cell medium by ELISA; conditions: Homo sapiens; SY5Y-APP^WT cells, 24 h treatment; mean ± SD of at least three experiments in triplicate
Description: as §1, §2, §3, §4

[1] = tested on: αCTF (APP carboxy-terminal fragment); experiment: αCTF level by Western blotting in SY5Y-APP^WT cells; conditions: Homo sapiens; concentration increasing αCTF 20-fold vs untreated control; SY5Y-APP^WT cells; read-out: αCTF (C20)
Description: as §1, §2
(§5) Cell protein lysates were prepared for Western blot analysis by diluting the sample with 1 volume of NuPAGE® lithium dodecyl sulfate (LDS) 2X sample buffer supplemented with 20% NuPAGE® sample reducing agents (Invitrogen). Samples were heated for 10 min at 100 °C. Ten µg of total proteins per well were loaded onto precast 4–12% Criterion XT Bis-Tris polyacrylamide gels (Bio-Rad) and electrophoresis was achieved after applying a tension of 150 V for 90 min using a Criterion electrophoresis cell with the NuPAGE® MOPS SDS running buffer (1X). Proteins were transferred to a nitrocellulose membrane of […] pore size (G&E Healthcare, Madison, WI, USA) using the Criterion blotting system and applying a tension of 100 V for 45 min. To resolve proteins of low molecular weights such as carboxy-terminal fragments of APP, 12% Criterion XT Bis-Tris polyacrylamide gels (Bio-Rad, Hercules, CA, USA) were used, and electrophoresis was performed for 70 min at 150 V in a NuPAGE® MES SDS running buffer (1X). Proteins were transferred to a nitrocellulose membrane of 0.2 µm pore size (G&E Healthcare, Madison, WI, USA) at 100 V for 40 min. Molecular weight calibration was achieved using molecular weight markers (Novex and Magic Marks, Life Technologies, Carlsbad, CA, USA). Protein transfer and quality were determined by a reversible Ponceau Red coloration (0.2% xylidine Ponceau Red and 3% trichloroacetic acid). […]

[2] = tested on: AICD (APP intracellular domain); experiment: AICD level by Western blotting in SY5Y-APP^WT cells; conditions: Homo sapiens, concentration increasing AICD 20-fold vs untreated control, read-out: AICD (C20)
Description: as §1, §2, §5

in vitro = conditions: human
Description: Cytotoxicity was measured using 3-(4,5-dimethylthiazol-2-yl)-5-(3-carboxymethoxyphenyl)-2-(4-sulfophenyl)-2H-tetrazolium (MTS) tests. SY5Y-APP^695WT cells were plated in a 96-well plate at 3 × 10^4 cells per well and allowed to attach for 24 h. Cells were then incubated for 72 h with 100 µL of DMEM with 10% SVF containing (or not) the defined concentration of drugs. Cytotoxicity was determined by using the colorimetric MTS assay (Cell Titer 96® Aqueous One Solution Cell Proliferation Assay-MTS Promega, Madison, WI, USA) according to the manufacturer’s instructions. Absorbance was read at 490 nm.

SMILES	IC50 (Aβ1–40 peptide secretion) [µM]	IC50 (Aβ1–42 peptide secretion) [µM]	EC (20-fold increase) [1] [µM]	EC (20-fold increase) [2] [µM]	CC50 at 72 h (in vitro) [µM]
CN(C)CCCc1ccc(-c2nn(-c3ccc(CO)cc3)cc2CN(C)C)cc1 [Compound 16, [4-[4-(Dimethylaminomethyl)-3-[4-[3-(dimethylamino)propyl]phenyl] Pyrazol-1-yl]phenyl]methanol]	6.2 ± 0.6	6.5 ± 1.1	3.6	4.6	23
CN(C)CCCc1ccc(-c2nn(-c3ccc(CO)cc3)cc2CCCN(C)C)cc1 [Compound 17, [4-[4-[3-(Dimethylamino)propyl]-3-[4-[3-(dimethylamino)propyl]phenyl] Pyrazol-1-yl]phenyl]methanol]	4.8 ± 1.2	5.4 ± 2.4	2	3.6	34
CN(C)CCCc1ccc(-c2nn(-c3ccc(CN(C)C)cc3)cc2CCCN(C)C)cc1 [Compound 25, 3-[4-[1-[4-(Dimethylaminomethyl)phenyl]-4-[3-(dimethylamino)propyl] Pyrazol-3-yl]phenyl]-N,N-dimethyl-propan-1-amine]	2.9 ± 0.1	3.2 ± 1	1	1.2	> 100
CN(C)CCCc1ccc(-c2nn(-c3ccc(CN4CCN(C)CC4)cc3)cc2CCCN(C)C)cc1 [Compound 29, 3-[4-[4-[3-(Dimethylamino)propyl]-1-[4-[(4-methylpiperazin-1-yl) Methyl]phenyl]pyrazol-3-yl]phenyl]-N,N-dimethyl-propan-1-amine]	3.4 ± 0.1	5 ± 0.1	1	2	> 100
CN(C)CCCc1ccc(-c2nn(-c3cccc(CN4CCN(C)CC4)c3)cc2CCCN(C)C)cc1 [Compound 31, 3-[4-[4-[3-(Dimethylamino)propyl]-1-[3-[(4-methylpiperazin-1-yl)methyl] Phenyl]pyrazol-3-yl]phenyl]-N,N-dimethyl-propan-1-amine]	4 ± 0.6	5.8 ± 0.6	1	1.5	> 100
Cc1cn(-c2cccc(CO)c2)nc1-c1ccc(CN(C)C)cc1 [Compound 48, [3-[3-[4-(Dimethylaminomethyl)phenyl]-4-methyl-pyrazol-1-yl]phenyl] Methanol]	> 10	> 10			24
Cc1cn(-c2cccc(CO)c2)nc1-c1cccc(CN(C)CCCN(C)C)c1 [Compound 58, [3-[3-[3-[[3-(Dimethylamino)propyl-methyl-amino]methyl]phenyl]-4-methyl-pyrazol-1-yl]phenyl]methanol]	3.3 ± 1.3	3.5 ± 0.7	> 10	7.9	20
Cc1cn(-c2cccc(CN(C)C)c2)nc1-c1ccc(CN(C)C)cc1 [Compound 61, {[4-(1-{3-[(Dimethylamino)methyl]phenyl}-4-methyl-1H-pyrazol-3-yl)phenyl]methyl}dimethylamine]	3.9 ± 0.3	4.1 ± 2.1	2.7	2.7	27
Cc1cn(-c2cccc(CN(C)C)c2)nc1-c1cccc(CN(C)C)c1 [Compound 64, 1-[3-[1-[3-(Dimethylaminomethyl)phenyl]-4-methyl-pyrazol-3-yl]phenyl]-N,N-dimethylmethanamine]	3.8 ± 0.2	4.1 ± 1.6	3.8	4.9	> 100

These reach a lower IC50 (Aβ1–40 peptide secretion). Values come first.

IC50 (Aβ1–40 peptide secretion) [µM]	IC50 (Aβ1–42 peptide secretion) [µM]	SMILES	EC (20-fold increase) [1] [µM]	EC (20-fold increase) [2] [µM]	CC50 at 72 h (in vitro) [µM]
1.6 ± 0.1	2.4 ± 0.7	CN(C)CCCc1ccc(-c2nn(-c3cccc(CN(C)C)c3)cc2CN(C)C)cc1 [Compound 26, 3-[4-[4-(Dimethylaminomethyl)-1-[3-(dimethylaminomethyl)phenyl] Pyrazol-3-yl]phenyl]-N,N-dimethyl-propan-1-amine]	1.3	1.8	> 100
2.6 ± 0.1	3.8 ± 0.4	CN(C)CCCc1ccc(-c2nn(-c3cccc(CN(C)C)c3)cc2CCCN(C)C)cc1 [Compound 27, 3-[4-[1-[3-(Dimethylaminomethyl)phenyl]-4-[3-(dimethylamino)propyl] Pyrazol-3-yl]phenyl]-N,N-dimethyl-propan-1-amine]	1.3	1.6	> 100
1.9 ± 0.1	2.4 ± 0.7	CN(C)CCCc1ccc(-c2nn(-c3ccc(CN4CCN(C)CC4)cc3)cc2CN(C)C)cc1 [Compound 28, 3-[4-[4-(Dimethylaminomethyl)-1-[4-[(4-methylpiperazin-1-yl)methyl] Phenyl]pyrazol-3-yl]phenyl]-N,N-dimethyl-propan-1-amine]	1.2	1.7	> 100
2.2 ± 0.3	3.8 ± 0.1	CN(C)CCCc1ccc(-c2nn(-c3cccc(CN4CCN(C)CC4)c3)cc2CN(C)C)cc1 [Compound 30, 3-[4-[4-(Dimethylaminomethyl)-1-[3-[(4-methylpiperazin-1-yl)methyl] Phenyl]pyrazol-3-yl]phenyl]-N,N-dimethyl-propan-1-amine]	1.2	1.6	> 100
2.4 ± 0.2	3.2 ± 0.8	Cc1cn(-c2cccc(CN3CCN(C)CC3)c2)nc1-c1ccc(CN(C)C)cc1 [Compound 62, Dimethyl({[4-(4-methyl-1-{3-[(4-methylpiperazin-1-yl)methyl]phenyl}-1H-pyrazol-3-yl)phenyl]methyl})amine]	2	3.5	11
2 ± 0.2	2.7 ± 0.2	Cc1cn(-c2cccc(CN(C)CCCN(C)C)c2)nc1-c1ccc(CN(C)C)cc1 [Compound 63, [(4-{1-[3-({[3-(Dimethylamino)propyl](methyl)amino}methyl)phenyl]-4-methyl-1H-pyrazol-3-yl}phenyl)methyl]dimethylamine]	1.2	1.5	13

From paper PMC9658513, “Discovery of Compounds That Selectively Repress the Amyloidogenic Processing of the Amyloid Precursor Protein: Design, Synthesis and Pharmacological Evaluation of Diphenylpyrazoles” (International Journal of Molecular Sciences, 2022)
